# Laboratory results reported in ChEMBL document CHEMBL4196242, “Irpeksins A-E, 1,10- seco-Eburicane-Type Triterpenoids from the Medicinal Fungus Irpex lacteus and Their Anti-NO Activity” (J Nat Prod, 2018).
# Test system: RAW264.7
# Assay: Inhibition of LPS-induced nitric oxide production in mouse RAW264.7 cells after 18 hrs by Griess assay
# Assay type: functional, cell-based
# Conditions: RAW264.7, 18 h
row,IC50 [µM],Structure (SMILES)
1,32.9,CNC(=N)NCCC[C@H](N)C(=O)O [TILARGININE]
2,17.9,CC1=C(C)[C@@]2(C[C@@H](C)[C@H]3[C@H](C[C@@]4(C)c5ccc(C(C)(C)/C=C/C(=O)O)c(C)c5C(=O)C[C@]34C)O2)OC1=O
3,2.2,CC1=C(C)[C@@]2(C[C@@H](C)[C@H]3[C@H](C[C@@]4(C)c5ccc(C(C)(C)/C=C/CO)c(C)c5C(=O)C[C@]34C)O2)OC1=O
4,19.6,CC1=C(C)[C@@]2(C[C@@H](C)[C@H]3[C@H](C[C@@]4(C)c5ccc(C(C)(C)/C=C/CO)c(C)c5O[C@H](O)C[C@]34C)O2)OC1=O
5,12.8,CC1=C(C)[C@@]2(C[C@@H](C)[C@H]3[C@H](C[C@@]4(C)c5ccc(C(C)(C)CCCO)c(C)c5C(=O)C[C@]34C)O2)OC1=O
6,4.5,CC1=C(C)[C@@]2(C[C@@H](C)[C@H]3[C@H](C[C@@]4(C)c5ccc(C(C)(C)/C=C/C(=O)O)c(C)c5[C@H](O)C[C@]34C)O2)OC1=O
